# Data published in ChEMBL document CHEMBL1201862, “PubChem BioAssay data set” (2004).
# Active and inactive are the calls of the source.
# How the values were obtained:
# [1] = biological target: T1, Cytochrome P450 1A2 (Homo sapiens, UniProt P05177);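 note: PubChem cytochrome P450 panel assay, CYP1A2 panel member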
# T1 sequence (P05177 whole entry): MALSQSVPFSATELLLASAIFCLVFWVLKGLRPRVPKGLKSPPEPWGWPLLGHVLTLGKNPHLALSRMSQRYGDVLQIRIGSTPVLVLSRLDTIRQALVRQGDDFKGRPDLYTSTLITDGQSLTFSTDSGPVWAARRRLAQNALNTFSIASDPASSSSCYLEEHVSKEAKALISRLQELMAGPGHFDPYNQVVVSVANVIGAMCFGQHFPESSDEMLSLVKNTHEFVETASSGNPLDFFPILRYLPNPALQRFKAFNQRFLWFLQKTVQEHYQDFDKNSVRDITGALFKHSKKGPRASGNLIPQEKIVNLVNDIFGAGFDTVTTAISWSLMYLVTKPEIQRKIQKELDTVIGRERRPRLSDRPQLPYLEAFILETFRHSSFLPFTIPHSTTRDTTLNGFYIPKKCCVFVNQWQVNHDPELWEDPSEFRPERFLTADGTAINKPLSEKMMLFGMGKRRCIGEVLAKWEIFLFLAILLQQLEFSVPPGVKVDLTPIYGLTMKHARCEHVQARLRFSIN
# [2] = growth suppression of PTEN-null colon cells, dose response, cell-based, HCT116 PTEN knockout (AID 1047); format: functional;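 note: HCT116 colon tumor cells with PTEN knocked out; cells exposed to compound for 60 hours before readout; potency for loss of cell viability measured by luminescence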
# [3] = growth suppression of beta-catenin-knockout colon cells, dose response, cell-based, HCT116, human colon tumor (AID 1045); format: functional;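 note: HCT116 colon tumor cells with beta catenin knocked out; cells exposed to compound for 60 hours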
# [4] = test system: INS1; assay: beta cell apoptosis inhibitors, cytokine rescue, dose response, luminescence, retest (AID 449756); format: functional, cell-based; conditions: Rattus norvegicus;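 note: cell death triggered by IL-1 beta plus TNF-alpha plus IFN-gamma mixture; protective hits raise ATP signal compared with cytokine alone wells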
# [5] = inhibitors of intracellular T. cruzi replication, confirmation, NIH3T3 host cells, beta-gal luminescence (AID 2044); format: functional, cell-based;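 note: intracellular parasites grown in NIH/3T3 mouse fibroblasts as host cells; luminescent beta-galactosidase reporter signal from transgenic T. cruzi replicating inside host cells; inhibitors lower the luminescence signal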
# [6] = cytotoxicity toward NIH3T3 fibroblasts, dose response, counter-screen, cell-based, ATP luminescence, mouse fibroblasts (AID 2010); format: functional;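 note: cells exposed to compound for about 90 hours before reading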
# [7] = Luminescence Cell-Based Dose Response HTS to Identify Inhibitors of 5'UTR Stem-Loop Driven Prion Protein mRNA Translation in H4 Neuroglioblastoma Cells. [Related pubchem assays: 1827 (Project Summary), 1813 (Primary HTS)]; format: functional
# [8] = inhibitors of SNCA 5'UTR-driven reporter translation, confirmation, H4 neuroglioma cells, luminescence (AID 1988); format: functional, cell-based
# [9] = inhibitors of firefly luciferase expression or activity, dose response, H4 neuroglioma cells, luminescence (AID 1990); format: functional, cell-based
# [10] = HEp-2 cell cytotoxicity, dose response, cytotoxicity control for RSV inhibitor project, HTS (AID 2410); format: functional; conditions: human respiratory syncytial virus
# [11] = biological target: Cytochrome P450 2C19 (Homo sapiens, UniProt P33261); assay: Cytochrome panel assay with activity outcomes. Panel member name: p450-cyp2c19 Compounds with AC50 equal or less than 10 uM are considered active; format: functional
# Cytochrome P450 2C19, sequence (P33261 whole entry): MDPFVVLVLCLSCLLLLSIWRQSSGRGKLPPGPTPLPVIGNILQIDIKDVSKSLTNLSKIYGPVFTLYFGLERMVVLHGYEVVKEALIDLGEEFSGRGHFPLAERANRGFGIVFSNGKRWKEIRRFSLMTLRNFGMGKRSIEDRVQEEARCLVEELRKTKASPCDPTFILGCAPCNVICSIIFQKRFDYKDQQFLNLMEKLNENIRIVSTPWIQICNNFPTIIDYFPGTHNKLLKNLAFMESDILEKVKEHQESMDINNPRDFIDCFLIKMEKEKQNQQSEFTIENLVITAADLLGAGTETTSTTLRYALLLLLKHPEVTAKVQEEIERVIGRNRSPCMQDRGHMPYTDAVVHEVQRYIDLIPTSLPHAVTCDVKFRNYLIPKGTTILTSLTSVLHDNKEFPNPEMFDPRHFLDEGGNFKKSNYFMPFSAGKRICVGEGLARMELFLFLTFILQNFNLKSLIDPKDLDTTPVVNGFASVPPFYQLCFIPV
structure (smiles),measurement,setting,value
COC(=O)C1CCC(C)(C(=O)Nc2ccccc2)C1(C)C (stereo unspecified),AC50,[1],15.8 µM (inconclusive)
Cc1sc2nc(CN3CCC(C)CC3)nc(Cl)c2c1C,EC50,[2],18.5 µM (active)
same,EC50,[3],14.5 µM (active)
OC[C@H]1O[C@H](n2cnc3c(NC4CCCC4)nc(Cl)nc32)[C@@H](O)[C@@H]1O,AC50,[1],39.8 µM (inconclusive)
CC(=O)N1CCc2cc(S(=O)(=O)NCCC3=CCCCC3)ccc21,AC50,[4],4.54 µM (active)
CN(C)CCN(C(=O)c1ccc(S(=O)(=O)N(C)c2ccccc2)cc1)c1nc2ccc(Cl)cc2s1,EC50,[5],0.117 µM (active)
same,EC50,[6],> 15 µM (not active)
COc1ccccc1N1CCN(S(=O)(=O)CCNC(=O)C2CC(=O)N(c3ccccc3)C2)CC1 (stereo unspecified),EC50,[7],> 120 µM (not active)
same,EC50,[8],114 µM (active)
same,EC50,[9],> 120 µM (not active)
Fc1cnc(N2CCc3ccccc32)nc1N1CCc2ccccc21,EC50,[2],30 µM (active)
same,EC50,[3],25.5 µM (active)
Cc1ccc(C)c(OCCCC(C)(C)C(=O)O)c1 [GEMFIBROZIL],AC50,[1],12.6 µM (inconclusive)
CCCn1c(C)cc(=O)c2cc(NC(=O)c3cnccn3)ccc21,EC50,[2],33.7 µM (active)
same,EC50,[3],19.9 µM (active)
CCOC(=O)c1cccc(-c2c(-c3ccccc3)ncc3cc(OC)c(OC)cc23)c1,CC50,[10],20.4 µM (active)
O=c1n(Cc2ccccc2F)c2ccccc2n1Cc1ccccc1F,EC50,[7],> 120 µM (not active)
same,EC50,[8],> 120 µM (not active)
same,EC50,[9],22 µM (active)
COc1ccccc1NS(=O)(=O)c1cccc(NC(=O)c2sc3ccccc3c2Cl)c1,EC50,[5],1.19 µM (active)
same,EC50,[6],> 60 µM (not active)
O=C(NCc1ccccc1)c1ccc(C(=O)N(C2CCCCC2)C2CCCCC2)cc1,EC50,[5],2.27 µM (active)
same,EC50,[6],> 60 µM (inconclusive)
Cc1ccc(-c2cc(C(F)F)n3ncc(C(=O)N4CCc5ccccc5C4)c3n2)cc1,EC50,[5],1.72 µM (active)
same,EC50,[6],> 60 µM (not active)
O=C(c1csnn1)N1CCC[C@@]2(CCN(c3ncccn3)C2)C1,AC50,[1],12.6 µM (inconclusive)
O=C(O)CCC(=O)Nc1ccc2ccccc2c1,AC50,[1],0.0631 µM (inconclusive)
CN1C/C(=C/c2ccsc2)C(=O)/C(=C/c2ccsc2)C1,EC50,[5],0.156 µM (active)
same,EC50,[6],> 30 µM (not active)
Cc1cc(C(=O)CSc2nc3ccccc3c(=O)n2C)c(C)n1Cc1ccc2c(c1)OCO2,AC50,[4],1.41 µM (active)
Cc1ccc(N2CCN(C(=O)c3nn(C)c4c3CS(=O)(=O)c3ccccc3-4)CC2)c(C)c1,CC50,[10],10.3 µM (active)
COc1cccc(NC(S)=NN2CCN(C)CC2)c1,AC50,[11]; read-out: AC50,28.2 µM (inconclusive)
COc1ccccc1N1CCN(C(CNC(=O)Oc2ccccc2)c2cccnc2)CC1 (stereo unspecified),EC50,[5],5.42 µM (active)
same,EC50,[6],> 60 µM (not active)
Cc1nc2ccccc2c(=O)n1-c1cc([N+](=O)[O-])cc([N+](=O)[O-])c1,EC50,[5],1.98 µM (active)
same,EC50,[6],> 60 µM (not active)
CCOc1ccccc1Nc1cc(C)nc2ccc(C)cc12,CC50,[10],26.1 µM (active)
CCC(C)Sc1nc2c(c(=O)[nH]c(=O)n2C)n1C (stereo unspecified),CC50,[10],20.8 µM (active)
CCCN1CCC(=NNc2ccc(S(=O)(=O)N(CC)CC)cc2[N+](=O)[O-])CC1,EC50,[7],> 120 µM (not active)
same,EC50,[8],8.05 µM (active)
same,EC50,[9],16.5 µM (active)
Cc1ccc(Nc2nnc(-c3ccc(N4CCOCC4)c([N+](=O)[O-])c3)c3ccccc23)cc1,CC50,[10],10.8 µM (active)
CN1CCN(c2ncc3nc(-c4cccc(C#N)c4)c(=O)n(Cc4ccc(F)cc4)c3n2)CC1,AC50,[11]; read-out: AC50,10 µM (inconclusive)
COC(=O)[C@@]1(Cc2ccccc2)[C@H]2c3cc(C(=O)N4CCCC4)[nH]c3C[C@H]2CN1C(=O)c1ccccc1,AC50,[1],1.26 µM (inconclusive)
CCc1ccc(N(C(=O)c2csnn2)C(C(=O)NC(C)(C)C)c2ccncc2)cc1 (stereo unspecified),AC50,[11]; read-out: AC50,2.82 µM (inconclusive)
CCCc1cc(NCCCCO)n2c(nc3ccccc32)c1C#N,EC50,[7],> 120 µM (not active)
same,EC50,[8],> 120 µM (not active)
same,EC50,[9],25.6 µM (active)
CCCSc1nnc(CSc2nc3nc(C)cc(C)n3n2)o1,AC50,[11]; read-out: AC50,15.8 µM (inconclusive)
CCCOc1ccc([N+](=O)[O-])cc1C1NC(S)=NC(c2ccccc2)=C1C(=O)OCC (stereo unspecified),CC50,[10],40.5 µM (active)
CCOC(=O)C1=C(CSc2nc3ccccc3s2)NC(=O)NC1c1cccc([N+](=O)[O-])c1 (stereo unspecified),AC50,[11]; read-out: AC50,1.58 µM (inconclusive)
CCOc1cc(/C=C(\C#N)C(=O)Nc2cccc(C(=O)O)c2)ccc1OCc1ccccc1Cl,CC50,[10],29.9 µM (active)
O=C(N/N=C\c1cn(-c2ccccc2)nc1-c1ccccc1)c1ccc2c(c1)OCO2,AC50,[1],3.55 µM (inconclusive)
COc1ccc(-c2cc(C(F)F)n3ncc(C(=O)N4CCCCC4)c3n2)cc1,EC50,[5],1.25 µM (active)
same,EC50,[6],> 60 µM (not active)
same,CC50,[10],> 50 µM (active)
CCOC(=O)C1(CCOc2ccccc2)CCN(Cc2ccc3nonc3c2)CC1,EC50,[5],2.61 µM (active)
same,EC50,[6],> 60 µM (not active)
N[C@](CC1c2ccccc2Oc2ccccc21)(C(=O)O)[C@@H]1C[C@@H]1C(=O)O,AC50,[1],31.6 µM (inconclusive)
Cc1cc(Cl)ccc1OCCCC(=O)NC1CCN(C)CC1,EC50,[5],0.164 µM (active)
same,EC50,[6],> 60 µM (not active)
CSCc1cc(N2CCOCC2)nc(SCc2ccc(Cl)c(Cl)c2)n1,CC50,[10],26.1 µM (active)
COC(=O)c1ccc(CSc2ccc3nnc(-c4ccccc4)n3n2)o1,EC50,[7],15.7 µM (active)
same,EC50,[8],16.6 µM (active)
same,EC50,[9],> 120 µM (not active)
CC(=O)N(C(C)=O)c1[nH]cc2c3ccccc3nc-2c1C#N,EC50,[7],12.9 µM (active)
same,EC50,[8],15.7 µM (active)
same,EC50,[9],9.63 µM (active)
Cc1ccc(Cn2nnc3c(O)nc(C4CCN(S(=O)(=O)Cc5ccccc5)CC4)nc32)cc1,CC50,[10],26.8 µM (active)
COc1ccc(C2=NN(C(=O)COc3ncnc4ccccc34)C(c3ccco3)C2)cc1 (stereo unspecified),EC50,[7],> 120 µM (not active)
same,EC50,[8],> 60 µM (not active)
same,EC50,[9],13.8 µM (active)
Cc1cccc(N(CC(=O)N2CCOCC2)S(C)(=O)=O)c1,AC50,[11],inconclusive
Cn1c(=O)[nH]c(=O)c2c1nc(N1CCCCCC1)n2Cc1cccc2ccccc12,EC50,[7],> 120 µM (not active)
same,EC50,[8],45 µM (active)
same,EC50,[9],24.4 µM (active)
O=C(/C=C/c1ccccc1)NC(NC(=S)Nc1ccc(Cl)cc1Cl)C(Cl)(Cl)Cl (stereo unspecified),EC50,[5],2.02 µM (active)
same,EC50,[6],> 60 µM (not active)
CCCCN1CC(=O)C(c2nc(-c3ccc(Cl)cc3)cs2)=C1N,EC50,[7],> 120 µM (not active)
same,EC50,[8],> 120 µM (not active)
same,EC50,[9],> 120 µM (not active)
COc1ccc(NC(=O)/C(C#N)=C/c2cc(C)n(-c3ccc(N4CCOCC4)c([N+](=O)[O-])c3)c2C)cc1,EC50,[7],35.2 µM (active)
same,EC50,[8],> 120 µM (not active)
same,EC50,[9],> 120 µM (not active)
Nc1ccccc1C(=O)Nc1ccc(Cl)cc1Cl,CC50,[10],35.7 µM (active)
COc1ccc(CN2CCN(Cc3cc4ccccc4o3)CC2CCO)cc1C (stereo unspecified),EC50,[5],0.306 µM (active)
same,EC50,[6],> 60 µM (not active)
O=C(/C=C/c1ccccc1)Nc1ccc2c(c1)OCCO2,EC50,[7],10.4 µM (inconclusive)
same,EC50,[8],9.98 µM (inconclusive)
same,EC50,[9],10.7 µM (inconclusive)
Cc1ccn2cc(-c3cccc(S(=O)(=O)N4CC(C)OC(C)C4)c3)nc2c1 (stereo unspecified),CC50,[10],> 50 µM (active)
Cc1c(C(=O)NN2CCCCC2)nn(-c2ccc(Cl)cc2Cl)c1-c1ccc(I)cc1,EC50,[7],> 120 µM (not active)
same,EC50,[8],12.4 µM (active)
same,EC50,[9],11.3 µM (active)
COc1ccc(-c2csc3ncnc(N4CCN(S(=O)(=O)c5ccc(C)c(C)c5)CC4)c23)cc1,EC50,[5],2.05 µM (active)
same,EC50,[6],24.1 µM (active)
CN(C)c1ncc2nc(-c3ccccc3)c(=O)n(C)c2n1,AC50,[11]; read-out: AC50,39.8 µM (inconclusive)
Cc1ccccc1C(=O)NC(=S)Nc1sc2c(c1C#N)CCCC2,CC50,[10],25.9 µM (active)
CC(C)(C)c1ccc(C(=O)Nc2ccc(S(=O)(=O)Nc3cnc4ccccc4n3)cc2)cc1,CC50,[10],8.3 µM (active)
COc1ccccc1Cn1nnc2c(O)nc(C3CCN(C(=O)c4ccccc4Cl)CC3)nc21,EC50,[7],> 120 µM (not active)
same,EC50,[8],68.6 µM (active)
same,EC50,[9],> 120 µM (not active)
CCC(C)c1ccc(-c2cc(C(=O)OCC(=O)Nc3cc(C)on3)c3ccccc3n2)cc1 (stereo unspecified),CC50,[10],43.8 µM (active)
Cc1ccc(C2CC(c3cccc(C)c3)n3nc(N)nc3N2)cc1 (stereo unspecified),AC50,[4],> 260 µM (inactive)
Cc1ccc(-c2nnc(N3CCCCCC3)c3ccccc23)cc1,EC50,[5],1.19 µM (active)
same,EC50,[6],> 60 µM (not active)
